# The source made the active and inactive calls. The rule behind the calls is not given here.
# How the values were obtained:
# [1] = target: T1, G-protein coupled bile acid receptor 1 (Homo sapiens) (UniProt Q8TDU6); assay: Agonist activity at TGR5 (unknown origin) transfected in HEK293 cells assessed as increase in intracellular calcium level at 0.33 mM in presence of Galphaq inhibitor, UBO-QIC and in absence of extracellular calcium by Fura-2AM dye based fluorometric analysis; type: functional, cell-based
# T1 sequence (whole entry): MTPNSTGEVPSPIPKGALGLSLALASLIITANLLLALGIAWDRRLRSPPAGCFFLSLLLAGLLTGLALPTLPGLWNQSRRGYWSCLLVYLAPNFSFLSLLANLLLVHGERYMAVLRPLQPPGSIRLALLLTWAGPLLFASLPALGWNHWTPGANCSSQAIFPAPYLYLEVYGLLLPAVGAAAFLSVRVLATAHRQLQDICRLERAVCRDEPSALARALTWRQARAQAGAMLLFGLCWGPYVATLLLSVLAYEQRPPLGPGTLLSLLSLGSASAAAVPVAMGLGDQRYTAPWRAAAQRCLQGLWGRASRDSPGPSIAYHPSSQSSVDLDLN
# HEK293 [2] = assay: Cytotoxicity against human HEK293 cells transfected with TGR5 assessed as reduction in cell viability at 0.67 mM measured after 2.5 hrs by MTS assay; type: cell-based; conditions: hek293, 2.5 h, 670 µM
# [3] = target: T1, G-protein coupled bile acid receptor 1 (Homo sapiens); assay: Agonist activity at TGR5 (unknown origin) transfected in HEK293 cells assessed as increase in intracellular calcium level at 0.1 mM in presence of Galphaq inhibitor, UBO-QIC and in absence of extracellular calcium by Fura-2AM dye based fluorometric analysis; type: functional, cell-based; conditions: filed as agonist
# HEK293 [4] = assay: Induction of intracellular calcium level in human HEK293 cells at 0.33 mM in presence of Galphaq inhibitor, UBO-QIC and in absence of extracellular calcium by Fura-2AM dye based fluorometric analysis; type: functional, cell-based
# HEK293 [5] = assay: Induction of intracellular calcium level in human HEK293 cells at 0.1 mM in presence of Galphaq inhibitor, UBO-QIC and in absence of extracellular calcium by Fura-2AM dye based fluorometric analysis; type: functional, cell-based
# [6] = target: T1, G-protein coupled bile acid receptor 1 (Homo sapiens); assay: Agonist activity at TGR5 (unknown origin) transfected in HEK293 cells assessed as increase in intracellular calcium level at 0.1 to 0.33 mM in absence of extracellular calcium by Fura-2AM dye based fluorometric analysis; type: functional, cell-based; conditions: filed as agonist, dose 0.1-0.33 mM
# HEK293 [7] = assay: Cytotoxicity against human HEK293 cells transfected with TGR5 assessed as reduction in cell viability at 0.33 to 0.5 mM measured after 2.5 hrs by MTS assay; type: cell-based; conditions: hek293, 2.5 h, 500 µM, dose 0.33-0.5 mM
# HEK293 [8] = assay: Induction of intracellular calcium level in human HEK293 cells at 0.1 to 0.33 mM in absence of extracellular calcium by Fura-2AM dye based fluorometric analysis; type: functional, cell-based; conditions: dose 0.1-0.33 mM
# HEK293 [9] = assay: Induction of intracellular calcium level in human HEK293 cells at 1 mM in absence of extracellular calcium by Fura-2AM dye based fluorometric analysis; type: functional, cell-based
# HEK293 [10] = assay: Cytotoxicity against human HEK293 cells transfected with TGR5 assessed as reduction in cell viability at 1 mM measured after 2.5 hrs by MTS assay; type: cell-based; conditions: hek293, 2.5 h, 1000 µM
# [11] = target: T1, G-protein coupled bile acid receptor 1 (Homo sapiens); assay: Agonist activity at TGR5 (unknown origin) transfected in HEK293 cells assessed as increase in intracellular calcium level in absence of extracellular calcium by Fura-2AM dye based fluorometric analysis; type: functional, cell-based; conditions: filed as agonist, dose 0.5-0.67 mM
# [12] = target: T1, G-protein coupled bile acid receptor 1 (Homo sapiens); assay: Agonist activity at TGR5 (unknown origin) transfected in HEK293 cells assessed as increase in intracellular calcium level at 0.5 to 0.67 mM in presence of Galphaq inhibitor, UBO-QIC and in absence of extracellular calcium by Fura-2AM dye based fluorometric analysis; type: functional, cell-based; conditions: dose 0.5-0.67 mM
# HEK293 [13] = assay: Induction of intracellular calcium level in human HEK293 cells at 0.5 to 0.67 mM in absence of extracellular calcium by Fura-2AM dye based fluorometric analysis; type: functional, cell-based; conditions: dose 0.5-0.67 mM
# [14] = target: T1, G-protein coupled bile acid receptor 1 (Homo sapiens); assay: Agonist activity at TGR5 (unknown origin) transfected in HEK293 cells assessed as increase in intracellular calcium level at 1 mM in presence of Galphaq inhibitor, UBO-QIC and in absence of extracellular calcium by Fura-2AM dye based fluorometric analysis; type: functional, cell-based
compound,measurement,setting,value
C[C@H](CCC(=O)O)[C@H]1CC[C@H]2[C@@H]3CC[C@@H]4C[C@H](O)CC[C@]4(C)[C@H]3C[C@H](O)[C@]12C [DEOXYCHOLIC ACID],Activity,[1],inactive
same,Activity,HEK293 [2],Toxic
same,Activity,[3],Active
same,Activity,HEK293 [4],inactive
same,Activity,HEK293 [5],Active
same,Activity,[6],Dose-Dependent Effect
same,Activity,HEK293 [7],Toxic
same,Activity,HEK293 [8],Dose-Dependent Effect
C[C@H](CCC(=O)O)[C@H]1CC[C@H]2[C@@H]3[C@@H](O)C[C@@H]4C[C@H](O)CC[C@]4(C)[C@H]3CC[C@]12C [URSODIOL],Activity,HEK293 [9],inactive
same,Activity,HEK293 [10],Non-Toxic
C[C@H](CC[C@H](O)C(CO)CO)[C@H]1CC[C@H]2[C@@H]3[C@H](O)C[C@@H]4C[C@H](O)CC[C@]4(C)[C@H]3C[C@H](O)[C@]12C,Activity,[11],Dose-Dependent Effect
same,Activity,[12],inactive
same,Activity,HEK293 [13],inactive
same,Activity,HEK293 [10],Toxic
C[C@H](CC[C@H](O)C(CO)COS(=O)(=O)O)[C@H]1CC[C@H]2[C@@H]3[C@H](O)C[C@@H]4C[C@H](O)CC[C@]4(C)[C@H]3C[C@H](O)[C@]12C (some centres not stated),Activity,[14],inactive
same,Activity,HEK293 [9],inactive
same,Activity,HEK293 [10],Non-Toxic
